One assay deals with Sprague-Dawley rats. Kind of assay: PD studies: blood glucose after subcutaneous dosing. Format: in vivo. The conditions noted are these: sc. How it is done: The pharmacodynamic effect of the Insulin Fc conjugates of the examples were investigated in normal male Sprague-Dawley rats weighing approx. 350 g at study start.
Animals had free access to food and water during the experiment period. They were dosed subcutaneously in the neck region with a dose of 30 nmol/kg (unless otherwise stated in the figures below). Blood samples for blood glucose and plasma insulin analysis were collected from the tongue veins up to 10 days post dosing. Blood glucose was measured using Biosen S Line (EKF).

Another assay relates to isolated rat adipocytes. Kind of assay: Insulin-stimulated lipogenesis. Format: cell-based. The conditions noted are these: 1% HSA; relative to the activity of human insulin (100%). How it is done: Insulin-stimulated lipogenesis was measured in isolated rat adipocytes in presence of 1% HSA as described in Moody A J, Stan M A, Stan M, Gliemann J. A Simple Free Fat Cell Bioassay for Insulin. Hormone And Metabolic Research. 1974; 6(1):12-6, see results in Table 6.

The next assay concerns the target insulin receptor A (Homo sapiens, UniProt P06213). The assay is described as follows: Insulin receptor affinity. The conditions noted are these: relative to affinity of human insulin for insulin receptor A (100%). In kind it is binding.
Where [1] appears, read: dose 30 nmol/kg, time 0.041667 days.
Setting [2] is: dose 30 nmol/kg, time 0.125 days.
Where [3] appears, read: dose 30 nmol/kg, time 0.291667 days.
Setting [4] is: dose 30 nmol/kg, time 0.208333 days.

Experimental findings from patent US11471537B2, “Oligomer extended insulin-Fc conjugates” (Novo Nordisk A/S, priority 2017, dated 2022) are described below.

Chain of insulin receptor A (P06213 28-1370 isoform P06213-2 limits assumed): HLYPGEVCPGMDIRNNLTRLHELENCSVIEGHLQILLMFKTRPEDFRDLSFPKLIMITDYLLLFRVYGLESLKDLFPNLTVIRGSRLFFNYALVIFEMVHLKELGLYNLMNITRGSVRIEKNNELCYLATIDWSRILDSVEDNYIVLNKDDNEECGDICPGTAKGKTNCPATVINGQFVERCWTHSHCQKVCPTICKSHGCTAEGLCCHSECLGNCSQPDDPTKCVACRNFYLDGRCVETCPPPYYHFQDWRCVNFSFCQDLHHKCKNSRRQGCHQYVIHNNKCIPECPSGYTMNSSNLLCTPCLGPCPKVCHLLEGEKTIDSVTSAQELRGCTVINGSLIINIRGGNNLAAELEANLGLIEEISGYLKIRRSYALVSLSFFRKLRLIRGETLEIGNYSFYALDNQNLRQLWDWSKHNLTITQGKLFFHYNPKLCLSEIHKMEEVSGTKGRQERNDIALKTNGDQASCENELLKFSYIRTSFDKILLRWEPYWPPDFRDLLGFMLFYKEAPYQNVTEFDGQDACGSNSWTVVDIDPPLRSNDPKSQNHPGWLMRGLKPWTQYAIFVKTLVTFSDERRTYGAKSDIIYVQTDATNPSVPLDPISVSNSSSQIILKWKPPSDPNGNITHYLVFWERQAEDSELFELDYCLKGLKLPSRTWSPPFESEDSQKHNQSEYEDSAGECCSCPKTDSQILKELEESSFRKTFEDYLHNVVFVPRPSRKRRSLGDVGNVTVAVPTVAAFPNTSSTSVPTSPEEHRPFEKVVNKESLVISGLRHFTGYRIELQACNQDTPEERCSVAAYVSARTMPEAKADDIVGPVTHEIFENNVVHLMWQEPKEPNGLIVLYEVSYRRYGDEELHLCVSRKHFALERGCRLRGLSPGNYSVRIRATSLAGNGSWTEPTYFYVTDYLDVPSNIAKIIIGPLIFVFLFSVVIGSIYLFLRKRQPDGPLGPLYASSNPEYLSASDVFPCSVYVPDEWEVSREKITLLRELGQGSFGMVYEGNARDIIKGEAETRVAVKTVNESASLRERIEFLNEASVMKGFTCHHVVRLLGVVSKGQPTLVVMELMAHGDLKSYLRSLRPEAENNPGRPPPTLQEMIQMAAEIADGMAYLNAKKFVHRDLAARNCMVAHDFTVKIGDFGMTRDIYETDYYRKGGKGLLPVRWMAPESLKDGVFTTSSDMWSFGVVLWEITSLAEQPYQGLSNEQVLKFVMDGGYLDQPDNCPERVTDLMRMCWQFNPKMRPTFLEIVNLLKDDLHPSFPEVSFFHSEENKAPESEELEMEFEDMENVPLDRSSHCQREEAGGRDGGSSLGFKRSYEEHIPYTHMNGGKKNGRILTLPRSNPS
Chain of insulin receptor A (P06213 763-1382 partner limits assumed): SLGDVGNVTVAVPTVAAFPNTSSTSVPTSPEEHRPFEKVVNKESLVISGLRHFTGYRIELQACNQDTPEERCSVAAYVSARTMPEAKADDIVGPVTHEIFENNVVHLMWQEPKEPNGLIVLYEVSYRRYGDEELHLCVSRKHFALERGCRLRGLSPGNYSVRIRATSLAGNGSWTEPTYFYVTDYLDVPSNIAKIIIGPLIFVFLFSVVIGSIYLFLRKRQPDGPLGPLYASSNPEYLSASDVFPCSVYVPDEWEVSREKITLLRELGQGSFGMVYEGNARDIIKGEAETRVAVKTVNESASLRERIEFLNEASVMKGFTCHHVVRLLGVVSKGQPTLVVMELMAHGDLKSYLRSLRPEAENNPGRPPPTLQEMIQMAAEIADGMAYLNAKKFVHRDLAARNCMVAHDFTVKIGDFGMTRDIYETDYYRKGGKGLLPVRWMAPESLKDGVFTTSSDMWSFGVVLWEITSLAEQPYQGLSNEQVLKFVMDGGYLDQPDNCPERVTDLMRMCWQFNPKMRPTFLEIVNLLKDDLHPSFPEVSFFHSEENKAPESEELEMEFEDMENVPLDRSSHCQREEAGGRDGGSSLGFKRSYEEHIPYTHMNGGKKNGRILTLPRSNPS

Regarding insulin degludec [reference compound], the “time over which blood glucose was lowered” value in the assay on Sprague-Dawley rats (3-fold higher dose (90 nmol/kg)) is “less than half a day”. Besides, the Average blood glucose is listed as 5.382 mM in the assay with Sprague-Dawley rats (dose 90 nmol/kg, time 0 days); 4.104 mM with Sprague-Dawley rats (dose 90 nmol/kg, time 0.020833 days); 3.182 mM in the assay with Sprague-Dawley rats (dose 90 nmol/kg, time 0.041667 days); 2.718 mM in the assay on Sprague-Dawley rats (dose 90 nmol/kg, time 0.083333 days); 2.336 mM in the assay with Sprague-Dawley rats (dose 90 nmol/kg, time 0.166667 days); 3.424 mM with Sprague-Dawley rats (dose 90 nmol/kg, time 0.25 days). In addition, the Average blood glucose in the assay with Sprague-Dawley rats (dose 90 nmol/kg, time 0.3336 days) was 4.292 mM; in the assay on Sprague-Dawley rats (dose 90 nmol/kg, time 0.5 days) it was 5.302 mM; in the assay on Sprague-Dawley rats (dose 90 nmol/kg, time 1 day) it was 5.758 mM.
Consider “(A14E, A21G, A22(GQAP)24, A118G, A119Q, A120A, A121K^, A122P, B25H, B29R, desB30 human insulin)/(227A, 234A, 235K, 297E, 315Q, 3840, des447 hIgG4-Fc(228-447))3,5-bis[(2-acetyl)amino]benzoyl Conjugate [Example 5.22]”, for which, in the assay on isolated rat adipocytes, the “Lipogenesis in rat adipocytes [Potency (%)] Mean Value” worked out at 4.64%. Also, the “Insulin receptor affinity [IC50 relative to HI (%)] Mean Value” at insulin receptor A was determined as 3.56%.
Take “A14E, A21G, A22(GQEP)19, A98K^, A99P, B3Q, B25H, B29R, desB30 human insulin/(227A, 234A, 235K hIgG4-Fc(228-447))4-[bis[2-[(2-acetyl)amino]ethyl]amino]-4-oxo-butanoyl Conjugate [Example 5.6]”: the “Insulin receptor affinity [IC50 relative to HI (%)] Mean Value” on insulin receptor A is 5.07%. Moreover, the Average blood glucose in the assay on Sprague-Dawley rats (dose 30 nmol/kg, time 0 days) was 6.46 mM; in the assay on Sprague-Dawley rats (setting [1]), 6.024 mM; in the assay with Sprague-Dawley rats (setting [2]), 5.092 mM; with Sprague-Dawley rats (setting [3]), 3.90 mM; in the assay with Sprague-Dawley rats (dose 30 nmol/kg, time 1 day), 2.808 mM; in the assay with Sprague-Dawley rats (dose 30 nmol/kg, time 2 days) it was 2.464 mM. The Average blood glucose in the assay with Sprague-Dawley rats (dose 30 nmol/kg, time 3 days) is reported as 2.996 mM; with Sprague-Dawley rats (dose 30 nmol/kg, time 4 days), 2.996 mM; in the assay with Sprague-Dawley rats (dose 30 nmol/kg, time 6 days) it was 5.98 mM; in the assay on Sprague-Dawley rats (dose 30 nmol/kg, time 7 days) it was 5.82 mM; in the assay with Sprague-Dawley rats (dose 30 nmol/kg, time 8 days), 6.012 mM.
As to “A14E, A21G, A22(GQAPGQEP)6, A70K^, A71P, B25H, B29R, desB30 human insulin/(227A, 234A, 235K hIgG4-Fc(228-447))4-[bis[2-[(2-acetyl)amino]ethyl]amino]-4-oxo-butanoyl Conjugate [Example 5.9]”, in the assay with isolated rat adipocytes, the “Lipogenesis in rat adipocytes [Potency (%)] Mean Value” came to 3.02%. Besides, the “Insulin receptor affinity [IC50 relative to HI (%)] Mean Value” at insulin receptor A came out at 2.96%. Besides, the Average blood glucose came to 5.812 mM in the assay on Sprague-Dawley rats (dose 30 nmol/kg, time 0 days); 5.448 mM in the assay on Sprague-Dawley rats (setting [1]); 5.438 mM with Sprague-Dawley rats (setting [2]); 4.902 mM with Sprague-Dawley rats (setting [4]); 4.426 mM in the assay with Sprague-Dawley rats (setting [3]); 3.044 mM in the assay on Sprague-Dawley rats (dose 30 nmol/kg, time 1 day). Moreover, the Average blood glucose in the assay with Sprague-Dawley rats (dose 30 nmol/kg, time 2 days) is on record as 2.614 mM; in the assay with Sprague-Dawley rats (dose 30 nmol/kg, time 3 days), 2.594 mM; in the assay on Sprague-Dawley rats (dose 30 nmol/kg, time 4 days), 3.734 mM; with Sprague-Dawley rats (dose 30 nmol/kg, time 5 days), 5.932 mM; in the assay on Sprague-Dawley rats (dose 30 nmol/kg, time 6 days) it was 6.244 mM; in the assay with Sprague-Dawley rats (dose 30 nmol/kg, time 7 days) it was 6.312 mM. Besides, the Average blood glucose in the assay with Sprague-Dawley rats (dose 30 nmol/kg, time 8 days) turned out to be 6.186 mM.
In the case of “A14E, A21G, A22(GQEP)12, A70K^, A71P, B25H, B29R, desB30 human insulin/(227A, 234A, 235K hIgG4-Fc(228-447))4-[bis[2-[(2-acetyl)amino]ethyl]amino]-4-oxo-butanoyl Conjugate [Example 5.8]”, the “Lipogenesis in rat adipocytes [Potency (%)] Mean Value” in the assay on isolated rat adipocytes worked out at 5.31%. Moreover, the “Insulin receptor affinity [IC50 relative to HI (%)] Mean Value” on insulin receptor A was found to be 10.58%. Besides, the Average blood glucose with Sprague-Dawley rats (dose 30 nmol/kg, time 0 days) came out at 5.538 mM; with Sprague-Dawley rats (setting [1]) it was 5.44 mM; in the assay with Sprague-Dawley rats (setting [2]), 4.488 mM; in the assay with Sprague-Dawley rats (setting [4]) it was 3.55 mM; in the assay with Sprague-Dawley rats (setting [3]), 3.238 mM; in the assay on Sprague-Dawley rats (dose 30 nmol/kg, time 1 day), 2.978 mM. The Average blood glucose in the assay with Sprague-Dawley rats (dose 30 nmol/kg, time 2 days) came to 1.844 mM; with Sprague-Dawley rats (dose 30 nmol/kg, time 3 days), 2.545 mM; with Sprague-Dawley rats (dose 30 nmol/kg, time 4 days) it was 3.325 mM; in the assay with Sprague-Dawley rats (dose 30 nmol/kg, time 5 days), 5.39 mM; with Sprague-Dawley rats (dose 30 nmol/kg, time 6 days), 6.8425 mM; in the assay with Sprague-Dawley rats (dose 30 nmol/kg, time 7 days), 6.4875 mM. For the same substance, the Average blood glucose in the assay with Sprague-Dawley rats (dose 30 nmol/kg, time 8 days) is recorded as 6.1875 mM.
Turning to “A14E, A21G, A22(GQAPGQAPGQAPGQEP)6-GQAP, A122K^, A123P, B25H, B29R, desB30 human insulin/(227A, 234A, 235K, 297E, 315Q, 384Q, des447 hIgG4-Fc(228-447))4-[bis[2-[(2-acetyl)amino]ethyl]amino]-4-oxo-butanoyl Conjugate [Example 5.20]”, the “Lipogenesis in rat adipocytes [Potency (%)] Mean Value” in the assay with isolated rat adipocytes came out at 5.41%. In addition, on insulin receptor A, the “Insulin receptor affinity [IC50 relative to HI (%)] Mean Value” came to 5.49%.
As for “A14E, A21G, A22(GQEP)3, A34G, A350, A36E, A37K^, A38P, B25H, B29R, desB30 human insulin/(227A, 234A, 235K hIgG4-Fc(228-447))4-[bis[2-[(2-acetyl)amino]ethyl]amino]-4-oxo-butanoyl Conjugate [Example 5.10]”, on insulin receptor A, the “Insulin receptor affinity [IC50 relative to HI (%)] Mean Value” came out at 2.47%.
As for “(A14E, A21G, A22(GQAP)24, A118G, A119Q, A120A, A121K^, A122P, B29R, desB30 human insulin)/(227A, 234A, 235K, 297E, 315Q, 384Q, des447 hIgG4-Fc(228-447))3,5-bis[(2-acetyl)amino]benzoyl Conjugate [Example 5.29]”, in the assay on isolated rat adipocytes, the “Lipogenesis in rat adipocytes [Potency (%)] Mean Value” turned out to be 2.64%. The “Insulin receptor affinity [IC50 relative to HI (%)] Mean Value” on insulin receptor A stood at 3.06%.
On to “(A14E, A21G, A22(GQAP)18, A94G, A95Q, A96A, A97K^, A98P, B16E, B25H, B29R, desB30 human insulin)/(227A, 234A, 235K, 297E, 315Q, 384Q, des447 hIgG4-Fc(228-447))4-[bis[2-[(2-acetyl)amino]ethyl]amino]-4-oxo-butanoyl Conjugate [Example 5.31]”, for which, in the assay on isolated rat adipocytes, the “Lipogenesis in rat adipocytes [Potency (%)] Mean Value” amounted to 0.60%. For the same substance, the “Insulin receptor affinity [IC50 relative to HI (%)] Mean Value” at insulin receptor A is on record as 0.47%.
Taken in the same sequence, the figures for “A14E, A21G, A22(GQEP)6, A46K^, A47P, B25H, B29R, desB30 human insulin/(227A, 234A, 235K, 297E, 315Q, 384Q, des447 hIgG4-Fc(228-447))4-[bis[2-[(2-acetyl)amino]ethyl]amino]-4-oxo-butanoyl Conjugate [Example 5.32]” were 3.72% and 2.16%.
